Measured values from patent US20160109430A1, “METHODS FOR DRUG DISCOVERY” (Memorial Sloan-Kettering Cancer Center, priority 2014, published 2016).

What was measured:
Assay type in all cases: cell-based
LS8817 cells [1] = assay: ATRX foci per cell by immunofluorescence in LS8817 cells
Description: (§1) Cells were washed twice with PBS and fixed with 4% paraformaldehyde at room temperature for 20 minutes. Cells were again washed twice with PBS and treated with 0.5% triton X-100 in PBS. Cells were again washed twice with PBS and blocked in 5% BSA in PBS for 30 minutes at room temperature. Cells were incubated with anti-ATRX antibody, obtained from Bethyl, Cat No. A301-045A, diluted at 1:2000 in PBS (stock is provided at 1 mg/ml) overnight at 4 degrees Celsius. The following day, cells were washed twice with PBS and incubated with Alexa Fluor-488 anti-rabbit secondary diluted at 1:500 in PBS (stock was provided at 2 mg/ml) for one hour at room temperature. Cells were washed twice with PBS and incubated with 0.1 μg/ml DAPI for 5 minutes at room temperature. Cells were washed three times with PBS and slides were mounted in Vectashield fluorescence mounting media. Slides were imaged using a Zeiss Axioplan 2 Upright Microscope.

LS8107 cells [2] = assay: ATRX foci per cell by immunofluorescence in LS8107 cells; settings: PD0332991 followed by shMDM2, compared to untreated or PD0332991 alone
Description: as §1

LS8817 cells [3] = assay: Senescence-associated β-galactosidase / senescence analysis in LS8817 cells; settings: for accumulation of SA-β-gal staining: 100 μM doxorubicin for five days
LS8107 cells [4] = assay: Senescence analysis (SA-β-gal) in LS8107 cells
Description: (§2) Cells were plated at a concentration of 25,000 per well in a 4-well chamber slides (Lab-Tek) and treated for seven days with drug and stained for senescence-associated β-galactosidase (Cell Signaling kit #9860). Cell number was quantitated by DAPI staining and β-galactosidase staining quantitated as a proportion of total cells.

U2OS cells = assay: Senescence analysis (SA-β-gal) in U2OS cells
Description: as §2

Structure (SMILES) | average number of ATRX foci per cell (LS8817 cells [1]; LS8817 cells, PD0332991 1 μM or 0.1 μM) | number of ATRX foci per cell (LS8817 cells [1]; LS8817 cells, PD0332991 in the presence of exogenous MDM2 (tet-on-MDM2-Flag, doxycycline), compared to PD0332991 alone) | number of ATRX foci per cell (LS8107 cells [2]) | cell state (quiescent or senescent) (LS8817 cells [3]; LS8817 cells, 1 μM or 0.1 μM) | cell state (quiescent or senescent) (LS8107 cells [4]; CDK4 inhibitor alone) | accumulation of SA-β-gal (LS8107 cells [4]; PD0332991 followed by shMDM2) | cell state (quiescent or senescent) on CDK4 inhibition, by SA-β-gal (U2OS cells; U2OS cells expressing exogenous ATRX) | cell state (quiescent or senescent) on CDK4 inhibition (U2OS cells; U2OS cells that do not express endogenous ATRX) | ATRX foci in cells expressing shATRX (LS8817 cells [1]; LS8817 cells expressing shATRX, 100 μM doxorubicin for five days) | average number of ATRX foci per cell (LS8817 cells [1]; LS8817 cells, 100 μM doxorubicin for five days, control cells about 8) | accumulation of SA-β-gal staining (LS8817 cells [3]; LS8817 cells expressing shATRX) | accumulation of SA-β-gal staining (LS8817 cells [3]; LS8817 cells expressing shSCR)
CC(=O)c1c(C)c2cnc(Nc3ccc(N4CCNCC4)cn3)nc2n(C2CCCC2)c1=O [PD0332991] | significant increase | prevented an increase | significant increase | enter a senescent state | entered a quiescent state | accumulation of SA-β-gal | entering a senescent state | entering a quiescent state versus a senescent state | – | – | – | –
COc1cccc2c1C(=O)c1c(O)c3c(c(O)c1C2=O)C[C@@](O)(C(=O)CO)C[C@@H]3O[C@H]1C[C@H](N)[C@H](O)[C@H](C)O1 [doxorubicin] | – | – | – | – | – | – | – | – | not observed | about 35 | did not significantly accumulate | significantly accumulated
